Among the data in US20260248787A9, “MEDICAMENT FOR TREATING CANCER COMPRISING OPTICALLY ACTIVE AZABICYCLO RING DERIVATIVE” (Sumitomo Pharma Co., Ltd., priority 2023, published 2026) are T/C values, retold here.

For this test, the system named is MOLM-13 cells. The experiment in a line: Tumor-bearing mice transplanted with MOLM-13 cells, with venetoclax and azacitidine, T/C (Example 10). The test is classed as in vivo. The conditions noted are these: MOLM-13 tumor-bearing mice, oral, 15 days. The protocol: The present compound was weighed and dissolved in 0.5 w/v % Methyl Cellulose 400 solution to give the compound concentrations of 20 mg/mL and 10 mg/mL. Venetoclax was weighed and suspended in a mixed solution of Phosal 50 propylene glycol (60%)/Polyethylene glycol-400 (30%)/Ethanol (10%) to give the compound concentration of 5 mg/mL. Azacitidine was weighed and dissolved in saline to give the compound concentration of 0.3 mg/mL.
MOLM-13 cells (DSMZ) were intradermally implanted around the ventral region of 5-week old NOD. CB17-PrkdcSCID/J mice (female, The Jackson Laboratory Japan) at 1×10^6 cells/mouse. […] The tumor volume was measured over time from the start of the administration, and the reduction effect of the tumor volume due to the compound-administration was evaluated. The tumor volume was calculated by the following formula using short axis and long axis of the tumor measured with an electronic caliper (Mitutoyo).
The control administration group in which only the solvent was administered and the test substance administration group were compared, and T/C was calculated using the following formula to evaluate the antitumor effect.

`C=C1C[C@@H]2CC[C@H]1[C@@H](C(=O)N1CCC3(CC1)CN(c1ncncc1Oc1ccc(F)cc1C(=O)N(C(C)C)C(C)C)C3)N2` [the present compound, 5-fluoro-2-[(4-{7-[(1S,3S,4R)-5-methylidene-2-azabicyclo[2.2.2]octane-3-carbonyl]-2,7-diazaspiro[3.5]nonan-2-yl}pyrimidin-5-yl)oxy]-N,N-di(propan-2-yl)benzamide]: the T/C was 22.6% (100 mg/kg) and 8.4% (200 mg/kg).

One may read the T/C as the result in the treated group divided by that in the control group, in per cent.
